This passage reports IC50, EC50 and AC50 results from ChEMBL document CHEMBL1201862, “PubChem BioAssay data set” (2004).

In experiment [1] the target is T1, Sentrin-specific protease 8 (Homo sapiens, UniProt Q96LD8).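 Note: luminescence read-out of SENP8 inhibition, dose-response confirmation following an ultra-high-throughput screen.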
T1 sequence (Q96LD8 whole entry): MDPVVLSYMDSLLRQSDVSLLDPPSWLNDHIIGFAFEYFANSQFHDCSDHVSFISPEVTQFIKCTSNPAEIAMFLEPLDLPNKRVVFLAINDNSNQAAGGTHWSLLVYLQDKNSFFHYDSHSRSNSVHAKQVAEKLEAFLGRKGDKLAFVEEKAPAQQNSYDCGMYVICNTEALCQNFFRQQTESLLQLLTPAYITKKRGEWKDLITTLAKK
Type of experiment: functional.

Experiment [2] concerns the target T2, Sentrin-specific protease 7 (Homo sapiens, UniProt Q9BQF6).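 Note: Luminescence-based dose-response confirmation of ultra-high-throughput screening hits, measuring inhibition of SENP7.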
T2 sequence (Q9BQF6 whole entry): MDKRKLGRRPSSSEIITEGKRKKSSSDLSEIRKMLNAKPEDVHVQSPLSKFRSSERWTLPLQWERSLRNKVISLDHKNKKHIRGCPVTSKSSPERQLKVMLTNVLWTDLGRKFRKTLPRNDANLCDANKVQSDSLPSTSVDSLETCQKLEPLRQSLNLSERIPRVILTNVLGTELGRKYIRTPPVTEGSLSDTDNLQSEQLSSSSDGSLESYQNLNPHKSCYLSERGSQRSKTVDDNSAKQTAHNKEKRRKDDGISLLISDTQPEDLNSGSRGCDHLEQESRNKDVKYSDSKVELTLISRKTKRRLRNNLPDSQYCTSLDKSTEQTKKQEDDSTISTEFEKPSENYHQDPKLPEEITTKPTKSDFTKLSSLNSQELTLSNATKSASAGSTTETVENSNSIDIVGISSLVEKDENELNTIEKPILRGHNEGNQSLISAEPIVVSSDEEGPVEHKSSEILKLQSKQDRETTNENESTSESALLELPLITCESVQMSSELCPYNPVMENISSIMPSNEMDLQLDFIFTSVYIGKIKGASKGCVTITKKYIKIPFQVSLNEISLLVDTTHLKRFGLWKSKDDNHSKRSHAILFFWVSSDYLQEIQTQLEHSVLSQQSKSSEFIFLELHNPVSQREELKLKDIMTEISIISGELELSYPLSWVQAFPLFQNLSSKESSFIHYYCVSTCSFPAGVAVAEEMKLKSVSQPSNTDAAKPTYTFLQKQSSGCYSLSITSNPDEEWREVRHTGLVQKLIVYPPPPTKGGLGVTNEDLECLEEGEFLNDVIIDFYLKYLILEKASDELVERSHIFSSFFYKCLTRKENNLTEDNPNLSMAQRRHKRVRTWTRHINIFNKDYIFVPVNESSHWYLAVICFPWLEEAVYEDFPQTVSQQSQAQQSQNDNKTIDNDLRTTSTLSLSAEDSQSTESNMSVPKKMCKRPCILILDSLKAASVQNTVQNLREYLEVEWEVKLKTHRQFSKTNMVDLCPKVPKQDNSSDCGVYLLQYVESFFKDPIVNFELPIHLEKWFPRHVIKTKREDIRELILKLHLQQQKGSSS
Type of experiment: functional.

Experiment [3] concerns the target ATP-dependent molecular chaperone HSP82 (Candida albicans (strain WO-1) (Yeast), UniProt C4YTQ8). Nature of the experiment: steroid-induced GRE reporter decrease in yeast – S. cerevisiae, luminescence, Hsp90 inhibitor project, dose response (AID 2400).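 Note: beta-galactosidase luminescence from glucocorticoid response element reporter as proxy for Hsp90 function; inhibitor potency where signal loss means Hsp90 inhibition.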 Type of experiment: functional, cell-based.
A short description of experiment [4]: fluconazole-exposed Candida albicans growth modulators – fluorescence, retest, confirmation (AID 2467). Type of experiment: functional, cell-based.
Experiment [5] is described as follows: non-specific 3'UTR reporter inhibition in Clone20-Shn3RL – cell-based, Renilla luciferase, cherry-picked, counter-screen for Shn3 inhibitor project, dose response (AID 624133). The experiment is classed as functional.
Experiment [6] addresses T3, Serine/threonine-protein phosphatase (Candida dubliniensis (strain CD36 / CBS 7987 / NCPF 3949 / NRRLY-17841) (Yeast), UniProt B9W6M3).
T3 sequence (B9W6M3 whole entry): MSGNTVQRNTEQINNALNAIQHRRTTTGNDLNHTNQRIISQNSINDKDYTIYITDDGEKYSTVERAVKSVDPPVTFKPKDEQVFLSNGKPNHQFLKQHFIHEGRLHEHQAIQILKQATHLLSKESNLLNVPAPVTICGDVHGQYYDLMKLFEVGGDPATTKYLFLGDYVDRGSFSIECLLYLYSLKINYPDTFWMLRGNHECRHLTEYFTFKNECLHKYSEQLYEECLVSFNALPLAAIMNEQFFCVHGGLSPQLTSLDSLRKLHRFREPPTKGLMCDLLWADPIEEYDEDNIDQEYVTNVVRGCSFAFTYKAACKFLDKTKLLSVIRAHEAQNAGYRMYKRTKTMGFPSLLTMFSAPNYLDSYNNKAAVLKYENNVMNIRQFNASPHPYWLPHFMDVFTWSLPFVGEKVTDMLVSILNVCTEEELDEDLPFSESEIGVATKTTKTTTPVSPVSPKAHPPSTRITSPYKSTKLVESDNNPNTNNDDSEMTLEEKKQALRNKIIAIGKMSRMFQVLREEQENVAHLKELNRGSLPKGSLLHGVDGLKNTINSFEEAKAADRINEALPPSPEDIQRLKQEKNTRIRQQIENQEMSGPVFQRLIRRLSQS
Briefly: blockers of CaCl2-induced CDRE-lacZ signaling – S. cerevisiae, luminescence, secondary, dose response (AID 2388).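 Note: yeast reporter cells carrying a calcineurin-responsive lacZ construct stimulated with calcium chloride; luminescent beta-galactosidase reporter signal in whole cells rather than isolated phosphatase activity; potency for inhibition where a drop in reporter signal means calcineurin blockade.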 The experiment is classed as functional, cell-based.

Experiment [7] is described as follows: loss of viability in HepG2 cells – cell-based, CellTiter-Glo, cherry-picked, cytotoxicity control for Shn3 inhibitor project, dose response (AID 624134). The experiment is classed as functional. On the technique in general: In ATP-based viability assays light output follows the ATP content of the culture.
For the next experiment, the system named is HEK293. Briefly: EBV LMP1 TES2 canonical NF-kB signalling blockers – cell-based, HEK293, luciferase, cherry-pick, dose response (AID 588343). Type of experiment: functional. Conditions: Homo sapiens.
The next experiment concerns Jurkat. Briefly: SAR Analysis of small molecule inhibitors of T-cell specific antigen receptor-induced NF-kB activation in a Jurkat cell line using a luminescence assay - Set 2. [Related pubchem assays (depositor defined):AID435003, AID435012, AID465]. The experiment is classed as functional, cell-based. Conditions: Homo sapiens.
The nature of another experiment: cells. The experiment is classed as functional, cell-based.

The source made the active and inactive calls. Bounds are passed on as bounds.

Usually IC50 stands for the point on the concentration scale where inhibition reaches its midpoint. The term EC50 denotes the concentration needed to bring the measured effect to its halfway point. The AC50 is the midpoint of the concentration-response curve, whichever way the signal moves.

Chain of ATP-dependent molecular chaperone HSP82 (C4YTQ8 whole entry): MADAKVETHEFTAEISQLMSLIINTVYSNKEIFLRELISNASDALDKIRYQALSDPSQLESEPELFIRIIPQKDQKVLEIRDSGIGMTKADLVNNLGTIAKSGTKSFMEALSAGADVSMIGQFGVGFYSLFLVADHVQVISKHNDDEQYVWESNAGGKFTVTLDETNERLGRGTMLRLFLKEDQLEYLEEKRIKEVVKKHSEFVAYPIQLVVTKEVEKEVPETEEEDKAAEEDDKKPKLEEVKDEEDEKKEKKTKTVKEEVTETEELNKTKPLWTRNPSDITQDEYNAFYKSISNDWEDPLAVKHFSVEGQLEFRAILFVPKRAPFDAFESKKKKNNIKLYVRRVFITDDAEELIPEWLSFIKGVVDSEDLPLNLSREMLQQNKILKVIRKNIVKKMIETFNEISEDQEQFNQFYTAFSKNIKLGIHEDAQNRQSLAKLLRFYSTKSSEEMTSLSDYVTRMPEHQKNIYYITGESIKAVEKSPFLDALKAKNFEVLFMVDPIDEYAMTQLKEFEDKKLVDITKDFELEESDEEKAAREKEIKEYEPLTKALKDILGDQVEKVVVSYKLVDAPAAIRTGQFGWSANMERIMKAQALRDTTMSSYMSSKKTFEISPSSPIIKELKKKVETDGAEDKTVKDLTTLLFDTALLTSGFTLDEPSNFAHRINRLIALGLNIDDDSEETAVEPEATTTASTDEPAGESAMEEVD

Consider `CCOc1cccc(/C=N/NC(=S)Nc2ccccc2[N+](=O)[O-])c1O`, for which the IC50 is 12.8 µM (active) in experiment [1] and 2.65 µM (active) in experiment [2].

Consider `CCCCC(=O)NC(c1ccc(N(CC)CC)cc1)c1ccc2cccnc2c1O` (stereo not given), for which the EC50 in experiment [3] is > 150 µM (inactive); in [4], 0.405 µM (active); in [6] it was > 180 µM (inactive); in the experiment “cells” it was > 350 µM (not active). The concentration at half-maximal activity (AC50) is 0.635 µM (active) in [5], 1.2 µM (active) in [7] and 5.16 µM (active) in the experiment with HEK293. Moreover, the 50% inhibitory concentration (IC50) in the experiment with Jurkat is 3.12 µM (active).
